Experimental data published in patent US12495798B2, “Nicotinamide compound and herbicidal composition comprising compound” (KOREA RESEARCH INSTITUTE OF CHEMICAL TECHNOLOGY, priority 2019, dated 2025).

Key:
Assay type in all cases: in vivo
sorghum = experiment: Herbicidal activity test against upland field weeds (foliar treatment test); design: key to Foliar treatment herbicidal activity, Sorghum: 0 (no control); 100 (complete control); conditions: 50 g ai/ha, scale 0-100; for plant injury at 50 g/ha: Sorghum
Experimental: (§1) Experimental Example 1: Herbicidal Activity Test Against Upland Field Weeds (Foliar Treatment Test) Foliar treatment was performed as follows: After filling a square plastic pot having a surface area of 350 cm^2 with horticultural soil, seeds (10˜15 grains) or rootstocks (2 pieces) of 5 kinds of grassy weeds of sorghum, barnyard grass, quack grass, crabgrass, fall panicum, and 5 kinds of broadleaf weeds of black nightshade, indian jointvetch, velvetleaf, cocklebur, bindweed, which had been stored in a low temperature (6° C.), were sown. After growing for a certain period in greenhouse conditions (average temperature 30±5° C., light/dark=14/10 hours), test compound solutions were made by diluting with a preparation solution (including 50% acetone, 0.1% Tween-20) so that the final treatment amount of the test compounds was 50 or 75 g a.i./ha. The prepared test compound solution was used for treating foliage by hand-spraying 14 mL per pot in a fume hood. After the treatment, it was managed under the same greenhouse conditions as above, and after 14 days (after 21 days if necessary), the external symptoms and efficacy were investigated according to the scale of 0 (no control) to 100 (complete control). The results of Table 7 were obtained by evaluating weed control value to the untreated control by conducting visual assessment.

barnyard grass = experiment: as above; design: key to Foliar treatment herbicidal activity, barnyard grass: 0 (no control); 100 (complete control); conditions: 50 g ai/ha, scale 0-100; for pest or weed control at 50 g/ha: Echinochloa crus-galli
Experimental: as §1

quack grass = experiment: as above; design: key to Foliar treatment herbicidal activity, quack grass: 0 (no control); 100 (complete control); conditions: 50 g ai/ha, scale 0-100
Experimental: as §1

crabgrass = experiment: as above; design: key to Foliar treatment herbicidal activity, Crabgrass: 0 (no control); 100 (complete control); conditions: 50 g ai/ha, scale 0-100; for pest or weed control at 50 g/ha: Digitaria sanguinalis
Experimental: as §1

fall panicum = experiment: as above; conditions: Panicum dichotomiflorum, 50 g ai/ha, scale 0-100
Experimental: as §1

black nightshade = experiment: as above; design: key to Foliar treatment herbicidal activity, black nightshade: 0 (no control); 100 (complete control); conditions: 50 g ai/ha, scale 0-100; for pest or weed control at 50 g/ha: Solanum nigrum
Experimental: as §1

indian jointvetch = experiment: as above; design: key to Foliar treatment herbicidal activity, Indian jointvetch: 0 (no control); 100 (complete control); conditions: 50 g ai/ha, scale 0-100
Experimental: as §1

velvetleaf = experiment: as above; conditions: Abutilon theophrasti, 50 g ai/ha, scale 0-100, read-out: Foliar treatment herbicidal activity, velvet leaf
Experimental: as §1

cocklebur = experiment: as above; conditions: Xanthium strumarium, 50 g ai/ha, scale 0-100
Experimental: as §1

bindweed = experiment: as above; conditions: 50 g ai/ha, scale 0-100
Experimental: as §1

corn = experiment: Phytotoxicity test for upland field crops (foliar treatment test); design: key: 0 (no harm); 9 (complete withered)
Experimental: (§2) Experimental Example 3: Phytotoxicity Test for Upland Field Crops (Foliar Treatment Test)
(§3) Foliar treatment was performed for grown crops and weeds in a square plastic pot having a surface area of 50 cm^2 filled with horticultural soil. As a fertilizer per pot, 0.5 g of horticultural mixed fertilizer (N:P:K=17:21:17) was treated by mixing in the upper soil. Five kinds of crops such as rice, wheat, corn, soybean, and cotton were sown in each pot, and after growing for a certain period in greenhouse conditions (average temperature 30±5° C., light/dark=14/10 hours), test compound solutions were made by diluting with the diluent (33% acetone, 0.1% Tween-20) so that the final treatment amount of the test compounds was 19˜300 g a.i./ha. The prepared test compound solutions were treated using a spray booth (SB6-016) at a treatment amount of 100 ml per 1 m^2 of treatment area. The treated plants were managed under the same greenhouse conditions as above, and external symptoms and phytotoxicity were investigated 7 and 14 days after treatment (after 21 days if necessary). In the evaluation of the phytotoxicity for the crop, the grade of 0 (no harm) to 9 (complete withered) was used. The results of Table 9 were obtained by evaluating crop phytotoxicity value to the untreated control.

wheat = experiment: as above; design: key: 0 (no harm); 9 (complete withered)
Experimental: as §2, §3

[1] = 50 g ai/ha, Corn (7 days after treatment)
[2] = 50 g ai/ha, Corn (14 days after treatment)
[3] = 100 g ai/ha, Corn (7 days after treatment)
[4] = 100 g ai/ha, Corn (14 days after treatment)
[5] = 50 g ai/ha, Wheat (7 days after treatment)
[6] = 50 g ai/ha, Wheat (14 days after treatment)
[7] = 100 g ai/ha, Wheat (7 days after treatment)
[8] = 100 g ai/ha, Wheat (14 days after treatment)

SMILES	plant injury at 50 g/ha (sorghum) [%]	pest or weed control at 50 g/ha (barnyard grass) [%]	Foliar treatment herbicidal activity, quack grass (quack grass)	pest or weed control at 50 g/ha (crabgrass) [%]	pest or weed control at 50 g/ha (fall panicum) [%]	Foliar treatment herbicidal activity, black nightshade (black nightshade)	pest or weed control at 50 g/ha (indian jointvetch) [%]	pest or weed control at 50 g/ha (velvetleaf) [%]	pest or weed control at 50 g/ha (cocklebur) [%]	pest or weed control at 50 g/ha (bindweed) [%]	Foliar treatment phytotoxicity, Corn (corn; [1])	Foliar treatment phytotoxicity, Corn (corn; [2])	Foliar treatment phytotoxicity, Corn (corn; [3])	Foliar treatment phytotoxicity, Corn (corn; [4])	Foliar treatment phytotoxicity, Wheat (wheat; [5])	Foliar treatment phytotoxicity, Wheat (wheat; [6])	Foliar treatment phytotoxicity, Wheat (wheat; [7])	Foliar treatment phytotoxicity, Wheat (wheat; [8])	pest or weed control at 50 g/ha (quack grass) [%]	pest or weed control at 50 g/ha (black nightshade) [%]	further results
C=CCn1nnnc1NC(=O)c1ccc(C(F)(F)F)nc1COCc1nnn(CC)n1 [Compound No. 2-90, N-(1-allyl-1H-tetrazol-5-yl)-2-(((2-ethyl-2H-tetrazol-5-yl)methoxy)methyl)-6-(trifluoromethyl)nicotinamide]	20	98	0	70	60	100	80	98	70	70	0	0	0	0	0	0	0	0			
COCn1nnc(COCc2nc(C(F)(F)F)ccc2C(=O)Nc2nnnn2C)n1 [Compound No. 2-91, 2-(((2-(methoxymethyl)-2H-tetrazol-5-yl)methoxy)methyl)-N-(1-methyl-1H-tetrazol-5-yl)-6-(trifluoromethyl)nicotinamide]	50	80	0	90	70	100	95	98	98	70	2	1	3	3	0	0	0	0			
CCCn1nnnc1NC(=O)c1ccc(C(F)(F)F)nc1COCc1ncn(C)n1 [Compound No. 2-114, 2-(((1-methyl-1H-1,2,4-triazol-3-yl)methoxy)methyl)-N-(1-propyl-1H-tetrazol-5-yl)-6-(trifluoromethyl)nicotinamide]		60			40		20	70	90	80	1	0	2	0	1	0	2	1	10	95	Foliar treatment herbicidal activity, Sorghum (sorghum): 0; Foliar treatment herbicidal activity, Crabgrass (crabgrass): 0
C=CCn1nnnc1NC(=O)c1ccc(C(F)(F)F)nc1COCc1ncn(C)n1 [Compound No. 2-115, N-(1-allyl-1H-tetrazol-5-yl)-2-(((1-methyl-1H-1,2,4-triazol-3-yl)methoxy)methyl)-6-(trifluoromethyl)nicotinamide]	10		0	20	50	100		50	90	80	0	0	0	0	0	0	0	0			Foliar treatment herbicidal activity, barnyard grass (barnyard grass): 0; Foliar treatment herbicidal activity, Indian jointvetch (indian jointvetch): 0
Cn1nnnc1NC(=O)c1ccc(C(F)(F)F)nc1COCc1nc(C(F)(F)F)n(C)n1 [Compound No. 2-118, N-(1-methyl-1H-tetrazol-5-yl)-2-(((1-methyl-5-(trifluoromethyl)-1H-1,2,4-triazol-3-yl)methoxy)methyl)-6-(trifluoromethyl)nicotinamide]	40	95	0	90	95	100	50	90	90	95	0	0	0	0	0	0	0	0			
CCn1nnnc1NC(=O)c1ccc(C(F)(F)F)nc1COCc1nc(C(F)(F)F)n(C)n1 [Compound No. 2-119, N-(1-ethyl-1H-tetrazol-5-yl)-2-(((1-methyl-5-(trifluoromethyl)-1H-1,2,4-triazol-3-yl)methoxy)methyl)-6-(trifluoromethyl)nicotinamide]	20	95		95	90		60	50	90	80	0	0	0	0	0	0	0	0	30	98	
